Assay results published in US20170304228A1, “NEW INDICATION OF CINACALCET HCL PHARMACEUTICAL COMPOSITION FOR TREATING CANCER” (LAUNX BIOMEDICAL CO., LTD., priority 2014, published 2017).
Counter-ions that a name gives are not always drawn. Like-named read-outs stand apart in the source and are kept apart here.

How the values were obtained:
Assay type in all cases: cell-based
[1] = tested on: MCF7; test: Cell viability analysis (WST-1), MCF7; settings: Homo sapiens, read-out: survival rate (viability) of cells
Protocol: (§1) The cell numbers were counted and reseed as 2×10^6 in culture plate/flask. Then, the culture medium were added to a volume of 10 ml, and the cells were cultured for 2-3 days. Then, the cells were suspended for loading into 96-well plates. The number of cells was 3000 and the volume of the culture medium was 100 μl each well.
(§2) Removing the original culture medium from 96-well plate. Then add 100 μl of commercially drug at a concentration of 10 μM per well. After 72 hours, add the diluted WST-1 reagent to the well with 100 μl/well, and the diluted WST-1 reagent was acquired from the dilution of 9:1 medium and WST-1 stock reagent. Finally, the total volume of each well was 200 μl/well. Culture the 96-well plate at 37° C. for 30 to 90 minutes. Detecting and calculate the survival rate of each cancer cells with an ELISA reader at OD450 nm. The lower viability of cancer cells represents better inhibition effect via the Cinacalcet HCl drug. Otherwise, the higher viability of cancer cells represents worse inhibition effect via the Cinacalcet HCl drug.
This inhibition test of Cinacalcet HCl on endocrine-related cancer cells were using prostate cancer cell lines PC-3 and LNCap (Table 6), breast cancer cell lines MCF7 and MDA-MB-231 (Table 7), and ovarian cancer cell lines NIH-OVCAR-3 and TOV-21G (Table 8). The inhibitory tests of Cinacalcet HCl were performed 4 times for each cell lines and then the average value of the inhibitory tests was calculated.

[2] = tested on: normal cells; test: Toxicity to normal cells
Protocol: as §2
This inhibition test of Cinacalcet HCl on normal cells were using normal kidney cell line HEK293 (Table 16), normal pulmonary epithelial cell lines […] BEAS-2B (Table 17). The inhibitory tests of Cinacalcet HCl were performed 4 times for each cell lines and then the average value of the inhibitory tests was calculated The results were shown in Tables 16 and Tables 17.

[3] = tested on: ovarian cancer cells; test: Summary of cell viability, ovarian cancer cells; settings: 72 hours, read-out: Inhibitory effect
Protocol: as §1, §2
(§3) Cinacalcet HCl is having different inhibitory effect on different tumor cell type even in the same cancer. […] (FIG. 1)

[4] = tested on: HepG2; test: Cell viability analysis (WST-1), HepG2; settings: Homo sapiens, read-out: survival rate (viability) of cells
Protocol: as §1, §2
(§4) This inhibition test of Cinacalcet HCl on gastrointestinal tract-related cancer cells were using gastric cancer cell lines AGS and MKN-45 (Table 9), hepatic cancer cell lines HepG2 and Hep3B (Table 10), colorectal cancer cell lines HCT116-wt and LoVo (Table 11), pancreatic cancer cell line AsPC-1 and BxPC-3(Table 12), tongue cancer cell line SAS (Table 13). The inhibitory tests of Cinacalcet HCl were performed 4 times for each cell lines and then the average value of the inhibitory tests was calculated.

[5] = tested on: C-33A; test: Cell viability analysis (WST-1), C-33A; settings: Homo sapiens, read-out: survival rate (viability) of cells
Protocol: as §1, §2
This inhibition test of Cinacalcet HCl on abdominal-related cancer cells were using bladder cancer cell line TSGH and T24 (Table 3), cervical cancer cell lines HeLa and C-33A (Table 4), renal cancer cell line 786-O (Table 5). The inhibitory tests of Cinacalcet HCl were performed 4 times for each cell lines and then the average value of the inhibitory tests was calculated.

[6] = tested on: HCT116-wt; test: Cell viability analysis (WST-1), HCT116-wt; settings: read-out: survival rate (viability) of cells
Protocol: as §1, §2, §4

[7] = tested on: SAS; test: Cell viability analysis (WST-1), SAS
Protocol: as §1, §2, §4

[8] = tested on: prostate cancer cells; test: Summary of cell viability, prostate cancer cells; settings: 72 hours, read-out: Inhibitory effect
Protocol: as §1, §2, §3

C[C@@H](NCCCc1cccc(C(F)(F)F)c1)c1cccc2ccccc12 [Cinacalcet HCl, Cinacalcet hydrochloride]
viability at 10 µM ([1]; MCF7, 10 μM, 72 hours, test 0612-10 min): 87.7%
viability at 10 µM ([1]; MCF7, 10 μM, 72 hours, test 0614-10 min): 75.6%
viability at 10 µM ([1]; MCF7, 10 μM, 72 hours, test 0616-10 min): 82.2%
viability at 10 µM ([1]; MCF7, 10 μM, 72 hours, test 0619-10 min): 77.2%
viability at 10 µM ([1]; MCF7, 72 h, 10 μM, average of tests): 80.7%
toxicity to normal cells [2]: no toxicity or had little toxicity
viability at 10 µM [3]: 58.7%
viability at 10 µM ([4]; HepG2, 10 μM, 72 hours, test 0524-20 min): 106%
viability at 10 µM ([4]; HepG2, 10 μM, 72 hours, test 0526-20 min): 133%
viability at 10 µM ([4]; HepG2, 10 μM, 72 hours, test 0529-20 min): 116%
viability at 10 µM ([4]; HepG2, 10 μM, 72 hours, test 0531-20 min): 89.5%
viability at 10 µM ([4]; HepG2, 72 h, 10 μM, average of tests): 111%
viability at 10 µM ([5]; 72 h, average of tests): 110%
viability at 10 µM ([5]; 72 hours, test 0524-10 min): 114%
viability at 10 µM ([5]; 72 hours, test 0526-10 min): 119%
viability at 10 µM ([5]; 72 hours, test 0529-10 min): 108%
viability at 10 µM ([5]; 72 hours, test 0531-10 min): 100%
viability at 10 µM ([6]; 72 h, average of tests): 110%
viability at 10 µM ([6]; 72 hours, test 0602-30 min): 89%
viability at 10 µM ([6]; 72 hours, test 0605-10 min): 107%
viability at 10 µM ([6]; 72 hours, test 0607-10 min): 132%
viability at 10 µM ([6]; 72 hours, test 0609-10 min): 113%
viability at 10 µM ([7]; 72 h, average of tests, read-out: survival rate (viability) of cells): 82.4%
viability at 10 µM ([7]; 72 h, summary, tongue cancer, read-out: Inhibitory effect): 77.4%
viability at 10 µM ([7]; 72 hours, test 6-26-10 min, read-out: survival rate (viability) of cells): 45.7%
viability at 10 µM ([7]; 72 hours, test 6-28-10 min, read-out: survival rate (viability) of cells): 88.9%
viability at 10 µM ([7]; 72 hours, test 6-30-10 min, read-out: survival rate (viability) of cells): 96.2%
viability at 10 µM ([7]; 72 hours, test 7-3-10 min, read-out: survival rate (viability) of cells): 98.9%
viability at 10 µM [8]: 81.7%
